# Laboratory results published in patent US20260199350A1, “FLAVONES, QUINOLINONES, QUINAZOLINONES, AND AURONES, AND USES IN CK2-MEDIATED DISEASES” (Salk Institute for Biological Studies, priority 2022, published 2026).
# Experiments:
# [1] = system: IL-6 secretion; test: IL-6 secretion assay in astrocytes (Promega Lumit IL-6 kit); format: cell-based, human; details: astrocytes and microglia; FIG. 2D, FIG. 1C
# Summary of the method: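 Human astrocytes (HCAs), 20,000 per well, cultured 2-3 days, then stimulated with 10 ng/mL IL1B alongside compound dilution series. IL-6 secreted over 5 h quantified by Lumit IL-6 luminescent immunoassay.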
# [2] = system: human iPSC-derived microglia; test: Cytokine release assay in LPS-stimulated iPSC-derived microglia; format: cell-based; details: 20 μM, panel of 36 cytokines, p<0.05
# Protocol: Cytokine release assay. […] Subsequently, media cleared of cells and debris was collected, snap-frozen and stored at −80° C. until processing with the Human Cytokine Array kit (R&D Systems, Catalog #ARY005). Briefly, media was diluted in Array Buffer 4 and incubated with a cocktail of biotinylated detection antibodies for 1 h at room temperature with rocking. The resulting immunocomplexes were incubated with nitrocellulose membranes spotted with capture antibodies overnight at 4° C. (see below for full list of targets). The membranes were washed 4× with Wash Buffer, then incubated with IRDye 800CW Streptavidin for 30 minutes at room temperature (1:2000 in Array Buffer 5, LI-COR #926-32230). The membranes were washed 4× and imaged with an Odyssey CLx instrument. Intensity for each spot was quantified with ImageStudio. Technical duplicate values for each target were averaged, and differential cytokine release by microglia exposed to LPS+vehicle versus vehicle only was determined (n=2 biological replicates, two-tailed t-tests, P<0.05).
# [3] = system: IκBα; test: Immunoblot of IκBα and pIκB S32 in inflamed astrocytes; format: cell-based, human; details: 6 hours
# Protocol: Western blotting. For drug treatment assays, cells were treated with vehicle (DMSO) or 20 μM compound and stimulated with IL1B 10 ng/mL for 1 h, 6 h, or 24 h. Cells were dissociated with 1:1 Accutase:papain for 3 min at rt, pelleted for 5 min at 800 g, and washed twice with cold DPBS. Pellets were lysed with RIPA buffer (Sigma R^0278) supplemented with Halt protease inhibitor cocktail (Thermo Fisher 78445) and clarified by centrifugation (16,000 g, 10 min, 4° C.). Protein concentration was determined by BCA assay (Thermo Fisher). Proteins were denatured in 1×LDS Buffer and 2.5% beta-mercaptoethanol (Sigma) for 10 min at 70° C., separated on Bolt 4-12% Bis-Tris Plus polyacrylamide gels (Thermo Fisher), transferred to PVDF membranes using the iBlot 2 Dry Blotting System, and blocked with 0.1% casein-PBS (Bio-Rad) for 1 h at room temperature. The blots were incubated with primary antibodies overnight at 4° C. in PBS containing 0.1% casein and 0.2% Tween-20. […] The blots were imaged using the Odyssey CLx imaging system and blots were analyzed on the ImageStudio software (LI-COR).
# [4] = system: microglial phagocytosis; test: Microglial phagocytosis assay (pHrodo E. coli beads); format: cell-based, human; details: 20 μM, P=0.0015
# Protocol: Phagocytosis assay. […] (2-3 biological replicates). Then, 0.5 μL of pHrodo E. Coli-FITC beads (Thermo Fisher, P35366) was added per well with gentle mixing and the cells were incubated for another 4 hours. pHrodo beads only fluoresce when they are internalized in cells. Cells were then collected by scraping, washed with FACS buffer (1×DPBS, 2% BSA, and 0.05 mM EDTA pH 8.0), and counter-stained with Zombie Violet to assess viability. Live cells were analyzed on the FACS Canto instrument for geometric mean fluorescence on the FITC channel. The background FITC fluorescence value (pHrodo beads only) was subtracted from each mean, and fold-change was computed across experimental groups.
# [5] = system: CK2α1 and CK2α2; test: CK2 protein levels by Western in IL1-β-stimulated astrocytes; format: cell-based, human; details: after 5 hours
# Protocol: Western blotting. For drug treatment assays, cells were treated with vehicle (DMSO) or 20 μM compound and stimulated with IL1B 10 ng/mL for 1 h, 6 h, or 24 h. Cells were dissociated with 1:1 Accutase:papain for 3 min at rt, pelleted for 5 min at 800 g, and washed twice with cold DPBS. […] Protein concentration was determined by BCA assay (Thermo Fisher). […] The blots were incubated with primary antibodies overnight at 4° C. in PBS containing 0.1% casein and 0.2% Tween-20. […] The membranes were washed 5× with 0.1% PBS-Tween20 (PBST) and incubated with secondary antibodies (1:20,000) for 1 h at rt in PBS with 0.1% casein, 0.2% Tween20, and 0.1% SDS. […] The blots were then washed 4× with PBST and 1× with DPBS. The blots were imaged using the Odyssey CLx imaging system and blots were analyzed on the ImageStudio software (LI-COR).
# [6] = system: NF-κB; test: NF-κB-Luciferase reporter assay in THP-1 NF-κB-Lucia cells; format: cell-based, human
# Protocol: NF-κB-Luciferase reporter assay. THP-1 NF-κB-Lucia cells were plated at 10,000 cells per well with 10 ng/mL PMA. Three days later, media was removed and replaced with media containing LPS (1 μg/mL) and dilution series of compounds in flat bottom clear 96-well plates for 24 hours. A day later, 20 μL of media was transferred to a 96-well white plate and 50 μL of QuantiLuc Gold reagent (InvivoGen rep-qlcg5) was added per well; plate was mixed in the plate reader and luminescence was read using a Promega GloMax Reader.
smiles,measurement,setting,value
"COc1cc(-c2cc(=O)c3c(O)cc(O)cc3o2)ccc1O [CHR, Chrysoeriol]","Anti-inflammatory effects, dose dependence",[1],dose-dependent
same,Release of LPS-induced pro-inflammatory cytokines,[2],significantly blocked
same,IκBα levels,[3],dose-dependently boosted
same,phosphorylated IκB S32,[3],remained unchanged
same,Microglial phagocytosis of pHrodo E. coli beads,[4],blocked
same,CK2α1 and CK2α2 levels,[5],reduced to baseline
same,IC50,"[6]; Homo sapiens, THP-1, FIG. 5B, read-out: IC50 in THP-1 monocyte NF-κB-Luciferase reporter cells",< 4 µM
same,SAR summary: activity in NF-κB reporter assay and for CK2 kinase inhibition,"[6]; at 20 μM, FIG. 5A, some values sourced from Baier et al. (2017) and Lolli et al. (2012)",active
